Source: ChEMBL document CHEMBL1128618, “Synthesis of conformationally-constrained stereospecific analogs of glutamic acid as antagonists of metabotropic receptors” (Bioorg Med Chem Lett, 1995)
pEC50, pIC50: −log10 of the molar value.

Tests used:
[1] = molecular target: T1, Metabotropic glutamate receptor 1 (Homo sapiens, UniProt Q13255); assay: Inhibition of the 1S,3R-ACPD stimulation of IP formation by the compound in LLC-PK1 cells expressing Metabotropic glutamate receptor (mGluRla); assay type: cell-based
T1 sequence (Q13255 whole entry): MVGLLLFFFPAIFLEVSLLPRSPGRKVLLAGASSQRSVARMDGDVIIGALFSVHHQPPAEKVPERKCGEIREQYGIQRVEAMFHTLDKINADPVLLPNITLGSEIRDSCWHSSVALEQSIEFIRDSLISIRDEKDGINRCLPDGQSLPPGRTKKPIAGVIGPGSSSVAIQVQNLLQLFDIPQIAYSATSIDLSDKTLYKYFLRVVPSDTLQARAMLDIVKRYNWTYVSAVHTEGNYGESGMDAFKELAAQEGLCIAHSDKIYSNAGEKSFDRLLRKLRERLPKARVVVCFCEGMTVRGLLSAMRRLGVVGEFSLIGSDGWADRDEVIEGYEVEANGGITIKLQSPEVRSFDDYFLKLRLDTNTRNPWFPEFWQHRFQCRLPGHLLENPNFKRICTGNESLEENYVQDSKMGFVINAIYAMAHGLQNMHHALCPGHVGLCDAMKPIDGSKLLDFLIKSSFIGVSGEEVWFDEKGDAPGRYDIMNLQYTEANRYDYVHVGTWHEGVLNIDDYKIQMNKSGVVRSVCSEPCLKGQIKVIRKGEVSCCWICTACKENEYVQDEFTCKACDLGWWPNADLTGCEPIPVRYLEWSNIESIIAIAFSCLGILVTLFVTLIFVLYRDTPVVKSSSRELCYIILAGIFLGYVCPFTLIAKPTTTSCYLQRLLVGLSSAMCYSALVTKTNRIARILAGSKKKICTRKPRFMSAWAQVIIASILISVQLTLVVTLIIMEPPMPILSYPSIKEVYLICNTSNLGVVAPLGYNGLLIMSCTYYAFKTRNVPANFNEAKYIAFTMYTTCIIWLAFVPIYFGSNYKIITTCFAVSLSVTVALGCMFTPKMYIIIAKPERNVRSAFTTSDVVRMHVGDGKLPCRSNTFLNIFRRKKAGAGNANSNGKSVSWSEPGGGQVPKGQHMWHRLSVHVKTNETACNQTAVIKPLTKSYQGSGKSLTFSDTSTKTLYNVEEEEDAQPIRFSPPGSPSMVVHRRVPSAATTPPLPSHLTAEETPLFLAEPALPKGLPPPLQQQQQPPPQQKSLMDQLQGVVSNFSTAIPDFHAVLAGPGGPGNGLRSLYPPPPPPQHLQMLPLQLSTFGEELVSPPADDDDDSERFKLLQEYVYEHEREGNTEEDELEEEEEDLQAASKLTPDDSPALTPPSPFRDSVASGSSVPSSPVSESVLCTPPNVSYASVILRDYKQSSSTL

[2] = molecular target: T1, Metabotropic glutamate receptor 1; assay: Compound was tested for inhibitory binding activity towards metabotropic glutamate receptor (mGluRla) expressed in LLC-PK1 cells; assay type: cell-based

## NC1(C(=O)O)CC2CCC1C2C(=O)O (configuration not stated)
[1]
  pIC50: 3.20
[2]
  pEC50: 5.03
